According to patent US10780047B2, “Method of providing birth control” (The Population Council, Inc., priority 2019, dated 2020):
≈ marks a conversion by molar mass, not a printed value. Read-outs that look alike come from different tables or passages of the source.

Columns and labels:
[1] = co-administration of atorvastatin or rosuvastatin and certain CHCs containing EE; cited from earlier work
[2] = biological target: cytochrome P450 (CYP) 3A4 isoenzyme (Homo sapiens, UniProt P08684)
From the text: These are present as free metabolites and as sulfate and glucuronide conjugates.

[3] = in vivo
[4] = Residual amount of drug in vaginal systems used in clinical trials over 13 product-use cycles; assay type: in vivo, human; conditions: based on residual drug in used systems
Protocol: Although the vaginal system provides SA and EE in the approximate rates described above, SA and EE can diffuse out of the vaginal system with release rates that vary over time. In certain embodiments, the daily in vitro release rates of SA and EE are higher during each initial 24-48 hours of use in a given product-use cycle, achieving a somewhat lower steady-state with continued use over subsequent days in each product-use cycle. Based on the residual amount of drug in vaginal systems used in clinical trials over 13 product-use cycles, a total of approximately 41.3 mg of SA and approximately 3.4 mg of EE are released over this period.

[5] = Pharmacokinetics of the vaginal system in 39 women over up to 13 product-use cycles; assay type: in vivo, human; design: AUC(0-t) / AUC0-21day / AUC0-1day: concentration or dose not given beside the values; conditions: vaginal administration; for AUC0-1day / AUC0-21day / Cavg / Cmax / AUC(0-t): mean (SD)
Protocol: The pharmacokinetics (PK) of the vaginal system described herein were determined in 39 women who used the system for up to 13 product-use cycles. […] Over subsequent product-use cycles, the peak serum concentrations of SA and EE declined. Serum concentration-time profiles of SA and EE for product-pse cycles 1, 3, and 13 of system use are provided in FIG. 1 and FIG. 2 with PK parameters summarized in Table 3 and Table 4.

[6] = Drug-drug interaction study with vaginal miconazole formulations; assay type: in vivo, human; conditions: for overall increase in exposure: concurrent 1 day or 3-day oil-based miconazole suppository; for change in exposure from the vaginal system: concurrent water-based vaginal miconazole cream
From the text: However, the use of either the 1 day or the 3-day oil-based miconazole suppository was associated with an overall increase in exposure up to 67% for EE and 32% for SA. Considering the potential long-term effect on vaginal system performance, concurrent use of oil-based vaginal suppositories should not occur with the system's use. If there is a need to treat a vaginal condition, water-based vaginal cream or oral therapy may be used concurrently with the vaginal system.

serum albumin = serum albumin (Homo sapiens, UniProt P02768); assay: Serum albumin binding; assay type: in vitro ADME; conditions: not specifically bound
Solubility = conditions: descriptive term
CYP enzymes = assay: In vitro CYP inhibition/induction studies; assay type: in vitro ADME; conditions: at the therapeutic dose
rats [7] = assay: 2-year carcinogenicity study in rats with subdermal implants; assay type: in vivo, rat; conditions: subdermal implants releasing 40, 100, and 200 μg per day, 2 years
From the text: (§1) Long-term continuous administration of natural and synthetic estrogens in certain animal species increases the frequency of carcinomas of the breast, uterus, cervix, vagina, testis, and liver.

[8] = tested on: Chinese hamster ovary cells; assay: Chromosomal aberration assay; assay type: cell-based
clinical = conditions: human, in vivo
rats [9] = assay: Return to fertility study in rats with subdermal implants; assay type: in vivo, rat
Protocol: A return to fertility study was conducted with segesterone acetate in rats, using subdermal implants releasing a dose approximately 25 times the anticipated daily vaginal human dose (based on body surface area).

Salmonella = assay: Ames/Salmonella reverse mutation assay; assay type: cell-based
physchem = conditions: water
QTc interval = assay: Phase 1 thorough QTc study; assay type: in vivo, human; conditions: single intravenous bolus dose giving 4.5-fold the therapeutic serum concentrations; 44 healthy adult female subjects
Protocol: The effect of SA on the QTc interval was evaluated in a Phase 1 randomized, placebo and positive controlled, double-blind, single-dose, three-period, crossover thorough QTc study in 44 healthy adult female subjects.

[10] = biological target: T1, sex hormone-binding globulin (SHBG) (Homo sapiens, UniProt P04278); assay: Binding affinity for SHBG
T1 sequence (P04278 30-402): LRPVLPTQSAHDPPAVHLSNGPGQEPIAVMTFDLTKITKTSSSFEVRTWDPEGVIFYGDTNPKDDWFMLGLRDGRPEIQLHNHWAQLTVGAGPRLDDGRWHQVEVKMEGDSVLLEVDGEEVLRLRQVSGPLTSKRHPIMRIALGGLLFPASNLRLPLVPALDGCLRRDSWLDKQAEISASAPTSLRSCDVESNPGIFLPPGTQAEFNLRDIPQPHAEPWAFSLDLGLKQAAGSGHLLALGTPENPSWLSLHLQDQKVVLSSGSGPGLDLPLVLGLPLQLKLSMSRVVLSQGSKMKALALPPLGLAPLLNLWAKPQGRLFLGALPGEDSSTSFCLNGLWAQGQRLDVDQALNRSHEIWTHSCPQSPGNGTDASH

mouse = assay: In vivo mouse micronucleus test
mice = assay: 2-year intravaginal carcinogenicity study in mice; assay type: in vivo, mouse; conditions: intravaginal gel, 2 years
From the text: as §1

human serum proteins = assay: Serum protein binding; assay type: in vitro ADME

Chain of cytochrome P450 (CYP) 3A4 isoenzyme (P08684 whole entry): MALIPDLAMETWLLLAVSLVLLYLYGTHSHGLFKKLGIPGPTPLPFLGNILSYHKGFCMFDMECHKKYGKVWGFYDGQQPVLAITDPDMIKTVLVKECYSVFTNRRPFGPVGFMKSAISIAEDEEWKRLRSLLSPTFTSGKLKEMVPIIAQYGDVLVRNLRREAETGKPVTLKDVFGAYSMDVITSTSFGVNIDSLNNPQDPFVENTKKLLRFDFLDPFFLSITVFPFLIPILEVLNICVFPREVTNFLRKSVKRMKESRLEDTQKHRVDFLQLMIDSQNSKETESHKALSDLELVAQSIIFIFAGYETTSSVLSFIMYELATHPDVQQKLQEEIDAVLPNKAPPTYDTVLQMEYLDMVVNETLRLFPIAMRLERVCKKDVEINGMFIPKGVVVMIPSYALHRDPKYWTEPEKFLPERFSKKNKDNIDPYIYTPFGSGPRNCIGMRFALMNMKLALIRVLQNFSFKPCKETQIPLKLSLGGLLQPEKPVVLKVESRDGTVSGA
Chain of serum albumin (P02768 25-609): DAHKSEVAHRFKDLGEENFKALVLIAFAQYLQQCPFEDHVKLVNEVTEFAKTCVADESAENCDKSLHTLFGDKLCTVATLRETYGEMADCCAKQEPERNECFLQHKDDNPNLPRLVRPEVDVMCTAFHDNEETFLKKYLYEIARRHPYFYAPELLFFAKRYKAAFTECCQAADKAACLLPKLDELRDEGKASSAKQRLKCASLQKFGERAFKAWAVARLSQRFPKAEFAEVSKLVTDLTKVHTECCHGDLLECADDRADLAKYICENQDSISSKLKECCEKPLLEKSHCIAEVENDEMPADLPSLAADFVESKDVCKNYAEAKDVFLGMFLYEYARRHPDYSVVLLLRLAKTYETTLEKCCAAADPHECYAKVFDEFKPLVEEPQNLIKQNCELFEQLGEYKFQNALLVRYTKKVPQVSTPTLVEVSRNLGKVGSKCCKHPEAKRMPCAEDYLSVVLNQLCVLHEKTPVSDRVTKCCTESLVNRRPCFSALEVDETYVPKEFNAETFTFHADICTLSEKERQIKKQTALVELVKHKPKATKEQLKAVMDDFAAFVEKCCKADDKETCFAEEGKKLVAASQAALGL

C#C[C@]1(O)CC[C@H]2[C@@H]3CCc4cc(O)ccc4[C@H]3CC[C@@]21C [EE, 19-nor-17α-pregna-1,3,5(10)-trien-20-yne-3,17-diol]
increase in systemic exposure of EE [1]: 20-25%
metabolizing enzyme [2]: metabolized by the cytochrome P450 (CYP) 3A4 isoenzyme
half-life ([3]; human): 15.1 (7.5) hours
effect on serum concentrations of SHBG [3]: induces an increase
total amount released [4]: approximately 3.4 mg
AUC0-1day ([5]; Cycle 1, serum): 2.1 (0.7) ng * hr/mL
AUC0-21day ([5]; Cycle 1, serum): 22.2 (9.8) ng * hr/mL
Cavg ([5]; Cycle 1, serum): 44 (19) pg/mL
Cmax ([5]; Cycle 1, serum): 129 (39) pg/mL
AUC0-1day ([5]; Cycle 3, serum): 0.9 (0.4) ng * hr/mL
AUC0-21day ([5]; Cycle 3, serum): 14.7 (4.7) ng * hr/mL
Cavg ([5]; Cycle 3, serum): 29 (9) pg/mL
Cmax ([5]; Cycle 3, serum): 60 (32) pg/mL
AUC0-1day ([5]; Cycle 13, serum): 0.7 (0.3) ng * hr/mL
AUC0-21day ([5]; Cycle 13, serum): 9.6 (4.1) ng * hr/mL
Cavg ([5]; Cycle 13, serum): 19 (8) pg/mL
Cmax ([5]; Cycle 13, serum): 39 (16) pg/mL
median Tmax ([5]; product-use cycle 1, 3 and 13): about 2 hours
overall increase in exposure [6]: up to 67%
change in exposure from the vaginal system [6]: no change
bound to serum albumin (serum albumin): 98.5%
solubility in alkaline solution (Solubility): dissolves

C=C1C[C@H]2[C@@H]3CCC4=CC(=O)CC[C@@H]4[C@H]3CC[C@]2(C)[C@@]1(OC(C)=O)C(C)=O [SA, 16-methylene-17α-acetoxy-19-nor-pregn-4-ene-3,20-dione]
metabolizing enzyme ([2]; human): metabolized by the cytochrome P450 (CYP) 3A4 isoenzyme
inhibition or induction of CYP enzymes (CYP enzymes): unlikely to inhibit or induce CYP enzymes
tumor incidence (rats [7]): no drug-related increase in tumor incidence
chromosomal aberration [8]: neither mutagenic nor elastogenic
Vd (clinical): 19.6 L/kg
half-life (clinical): 4.5 h
effects on ovulation or litter parameters after treatment (rats [9]; 7 weeks after cessation of treatment): no adverse effects on ovulation or resulting litter parameters
effect on fertility (rats [9]; subdermal implants, three months of treatment, approximately 25 times the human dose): suppressed fertility
mutagenicity (Salmonella): neither mutagenic nor elastogenic
solubility (physchem): 18.5 µg/mL (≈ 49.9 µM)
total amount released [4]: approximately 41.3 mg
Cavg ([5]; Cycle 1, serum): 191 (34) pg/mL
Cavg ([5]; Cycle 3, serum): 131 (29) pg/mL
Cavg ([5]; Cycle 13, serum): 94 (20) pg/mL
AUC(0-t) ([5]; female, human, serum, Cycle 1, serum, read-out: AUC0-1day): 15 ng·h/mL
AUC(0-t) ([5]; female, human, serum, Cycle 1, serum, read-out: AUC0-21day): 96.2 ng·h/mL
Cmax ([5]; female, human, serum, Cycle 1, serum, read-out: Cmax): 1.15 ng/mL
AUC(0-t) ([5]; female, human, serum, Cycle 3, serum, read-out: AUC0-1day): 5 ng·h/mL
AUC(0-t) ([5]; female, human, serum, Cycle 3, serum, read-out: AUC0-21day): 65.9 ng·h/mL
Cmax ([5]; female, human, serum, Cycle 3, serum, read-out: Cmax): 0.363 ng/mL
AUC(0-t) ([5]; female, human, serum, Cycle 13, serum, read-out: AUC0-1day): 3.9 ng·h/mL
AUC(0-t) ([5]; female, human, serum, Cycle 13, serum, read-out: AUC0-21day): 47.2 ng·h/mL
Cmax ([5]; female, human, serum, Cycle 13, serum, read-out: Cmax): 0.294 ng/mL
Tmax ([5]; female, human, serum, product-use cycle 1, 3 and 13, read-out: median Tmax): ~2 h
effect on the QTc interval (QTc interval): did not prolong the QTc interval to any clinically relevant extent
overall increase in exposure [6]: ≤ 32%
change in exposure from the vaginal system [6]: no change
binding affinity for sex hormone-binding globulin (SHBG) [10]: negligible
micronucleus test result (mouse): neither mutagenic nor elastogenic
carcinogenic findings (mice; 10 mg/kg/day): did not result in carcinogenic findings
carcinogenic findings (mice; 30 mg/kg/day): increased incidence of adenocarcinoma and lobular hyperplasia in the breast
bound to human serum proteins (human serum proteins): approximately 95%
